Experiments:
NT1/19 cells = assay: Effect of varying alkanoates on antibody production from hybridoma cells; format: cell-based; conditions: for AVERAGE DATA FROM EXP. #1 & #2: average of relative productivity, control 100.00; for PRODUCTIVITY EXP #2: control 2.39
Experimental: (§1) The IgM secreting mouse hybridoma cell line NB1/19 was grown in suspension culture in Dulbeccos Modified Eagles Minimum (DMEM) serum-free medium containing albumin, insulin, transferrin, gentamycin and other additives as required to cultivate cells in suspension culture. The NB1/19 cell line produces a mouse monoclonal antibody having specificity for an antigenic determinant of human B-type blood cells. The preparation of this call line is described in detail in the specification of British Patent GB 2097425B. It will be appreciated, however, that other hybridoma cell lines may be used in place of this particular cell line as appropriate in this and other examples.
(§2) The cells were grown to a viable cell density of 1.0-1.5×10^6 cells/ml. Viable cell density was determined by counting the number of cells which exclude trypan blue, a staining agent. A sample of the suspension culture was diluted in a serum-free medium to a density of about 1.3×10^5 cells/ml. Aliquots of 50 ml in volume were dispensed into shake flasks and sodium butyrate added at concentrations of 0.1 mM, 0.3 mM, 0.5 mM and 1.0 mM.
(§3) The shake flasks were gassed with 5% CO2-95% air, and sealed and incubated with shaking at 37° C. for up to 207 hours. (Table 1). Samples ([…]) were removed from the culture by pipette. 100 μl was used to determine viable cell count and the reminder centrifuged at 300×g for five minutes. Supernatants were stored at −20° C. prior to antibody determination by enzyme linked immunosorbent assay (ELISA).
NT1/19 cells were cultured as in Example 1. Varying straight chain sodium alkanoate salts (propionate, butyrate, bentanoate or hexanoate) were added to the inoculum at the concentrations indicated in Table 5.

hybridoma cell line F = assay: Harvest antibody titre, hybridoma cell line F; format: cell-based; conditions: SFM + 5% FCS, 0.50 mM butyrate, control 90
Experimental: […] Cells were cultured in either roller bottles or in shake-flasks, as in Example 1. Sodium butyrate was added to cultures immediately after inoculation.

[1] = tested on: IgM secreting mouse hybridoma cell line NB1/19; assay: Effect of sodium butyrate on hybridoma cell growth and antibody production, serum-free medium, shake flasks (ELISA); format: cell-based
Experimental: as §1, §2, §3

hybridoma cell line L = assay: Harvest antibody titre, hybridoma cell line L; format: cell-based; conditions: SFM, control 34
Experimental: (§4) Hybridoma cells were grown in suspension culture in either serum-free medium (see Example 1) or in DMEM supplemented with 10% (v/v), heat inactivated foetal calf serum. Cells were cultured in either roller bottles or in shake-flasks, as in Example 1. Sodium butyrate was added to cultures immediately after inoculation.

Hybridoma cells = assay: Effect of sodium butyrate on a variety of hybridoma cell lines (summary statement); format: cell-based; conditions: butyrate added immediately after inoculation
Experimental: as §4

hybridoma cell line E = assay: Harvest antibody titre, hybridoma cell line E; format: cell-based; conditions: SFM, control 46
Experimental: as §4

HeLa-cell cultures = conditions: cited from earlier work

Question: Which results are given for `CCCC(=O)[O-].[Na+]` [sodium butyrate]?
Answer: AVERAGE DATA FROM EXP. #1 & #2 (NT1/19 cells; 0.50 mM alkanoate): 204.39; PRODUCTIVITY EXP #2 (NT1/19 cells; 0.50 mM alkanoate): 4.7 ug antibody per 10^5 cells; PRODUCTIVITY EXP. #1 (NT1/19 cells; 0.50 mM alkanoate, control 3.30): 7.00 ug antibody per 10^5 cells; AVERAGE DATA FROM EXP. #1 & #2 (NT1/19 cells; 1.00 mM alkanoate): 368.20; PRODUCTIVITY EXP #2 (NT1/19 cells; 1.00 mM alkanoate): 8.80 ug antibody per 10^5 cells; HARVEST ANTIBODY TITER (hybridoma cell line F): 132 mg/L; Average specific rate of antibody production ([1]; 0.1 mM sodium butyrate): 26 μg/10^6 cells/day; antibody concentration ([1]; 0.1 mM sodium butyrate, 41 hours): 34 µg/mL; antibody concentration ([1]; 0.1 mM sodium butyrate, 87 hours): 90 µg/mL; antibody concentration ([1]; 0.1 mM sodium butyrate, 137 hours): 128 µg/mL; Average specific rate of antibody production ([1]; 0.3 mM sodium butyrate): 26 μg/10^6 cells/day; antibody concentration ([1]; 0.3 mM sodium butyrate, 41 hours): 41 µg/mL; antibody concentration ([1]; 0.3 mM sodium butyrate, 87 hours): 114 µg/mL; antibody concentration ([1]; 0.3 mM sodium butyrate, 137 hours): 147 µg/mL; Average specific rate of antibody production ([1]; 0.5 mM sodium butyrate): 31 μg/10^6 cells/day; antibody concentration ([1]; 0.5 mM sodium butyrate, 41 hours): 50 µg/mL; antibody concentration ([1]; 0.5 mM sodium butyrate, 87 hours): 173 µg/mL; antibody concentration ([1]; 0.5 mM sodium butyrate, 137 hours): 173 µg/mL; Average specific rate of antibody production ([1]; 1.0 mM sodium butyrate): 52 μg/10^6 cells/day; antibody concentration ([1]; 1.0 mM sodium butyrate, 41 hours): 39 µg/mL; antibody concentration ([1]; 1.0 mM sodium butyrate, 137 hours): 180 µg/mL; antibody concentration ([1]; 1.0 mM sodium butyrate, 207 hours): 256 µg/mL; HARVEST ANTIBODY TITER (hybridoma cell line L; 0.25 mM butyrate): 50 mg/L; HARVEST ANTIBODY TITER (hybridoma cell line L; 0.50 mM butyrate): 58 mg/L; amount of antibody produced per cell (Hybridoma cells): increased the amount of antibody produced per cell; HARVEST ANTIBODY TITER (hybridoma cell line E; 0.35 mM butyrate): 56 mg/L; HARVEST ANTIBODY TITER (hybridoma cell line E; 0.50 mM butyrate): 86 mg/L; human choriogonadotropin synthesis (HeLa-cell cultures; 1 mM, Ghosh et al, Cox & McClure): induce human choriogonadotropin synthesis; cell growth (HeLa-cell cultures; butyrate treatment): inhibited cell growth

— patent US6660501B2, “Production of proteins by cell culture” (Lonza Group, AG, priority 1986, dated 2003)
